Data: patent publication US20260295059A1, “BROAD-SPECTRUM ANTIBIOTIC HYBRIDS FOR THE TREATMENT OF MULTI-DRUG RESISTANT INFECTIONS” (priority 2023, published 2026)
Where a SMILES comes first, the peptide text is derived from it. Bridges are numbered along the chain shown (N, C = ends). [ ]: non-standard residue; d: D form. The star is where a group is joined. ξ: configuration not given here. Decanoyl(3R-OH) = CCCCCCC[C@@H](O)CC(=O)*; Decanoyl = CCCCCCCCCC(=O)*; dDab = NCC[C@@H](N)C(=O)O; Dab = NCC[C@H](N)C(=O)O; ξDab = NCCC(N)C(=O)O

Tests used:
[1] = tested on: PDR P. aeruginosa; assay: Activity against challenge panel of 207 P. aeruginosa isolates (MIC50/MIC90); format: cell-based; settings: P. aeruginosa (n = 207)
Experimental: (§1) Dry Powder Formulation and in vivo Efficacy of UOM-001 and UOM-005 in a Lung Infection Model. […] The activity of DPI UOM-001 and comparator antibiotics was assessed against a challenge panel consisting of 207 P. aeruginosa isolates collected from different parts of the world; 105 isolates were enriched for resistance against β-lactam/β-lactamase inhibitor combinations (Table 6). […] The teixobactin-lipopeptide hybrids have a labile linker between the two antibiotic components that allows for sustained release of each component at the infection site simultaneously, thereby targeting their synergistic activity. Whereas the individual components when administered together likely display different disposition, uptake, and elimination characteristics, and therefore become diffusely distributed from each other, resulting in the loss of antibacterial synergy. […] In contrast, following intravenous administration of an identical dose, the ELF concentration of UOM-001 was below the limit of quantification (0.1 μg/mL). […] Pulmonary surfactant is a primary component of the ELF which can bind antibiotics that can impede the antibacterial activity of the drug. The binding of UOM-001 and teixobactin (5 mg/L for 4 h 37° C.) to lung surfactant or its individual components was determined by ultracentrifugation and LC-MS (FIG. 5C). The low binding of UOM-001 to lung surfactant is consistent with its good efficacy in the lung infection model. The effect of surfactant on the in vitro antibacterial activity of UOM-001 was assessed with the use of three polymyxin-resistant P. aeruginosa cystic fibrosis isolates. Beractant (Survanta™; Abbott Laboratories) served as the pulmonary surfactant. Beractant is a bovine-derived surfactant containing 25 mg/mL phospholipids. Although its composition differs slightly from that of human surfactant, it is functionally equivalent. For surfactant testing, the bacterial growth medium was supplemented with 10% beractant (=2.5 mg/mL). Since the surfactant produces turbidity, the minimum bactericidal concentration (MBC) was used to compare potency of UOM-001 in the absence or presence of surfactant. The MBCs of UOM-001 (0.125-0.5 mg/L) were not affected even when tested with the highest concentrations of surfactant (2.5 mg/mL, 10%).

[2] = tested on: P. aeruginosa; assay: as above; format: cell-based; settings: Pseudomonas aeruginosa
Experimental: as §1

[3] = tested on: Gram-negative bacteria; assay: Antibacterial activity against Gram-negative bacteria; format: cell-based
Source text: (§2) Polymyxin lipopeptides can act as powerful potentiators for FDA-approved non-antibiotic drugs, by permeabilizing the Gram-negative outer membrane, allowing the non-antibiotic drug to enter the bacterial cell and reach its intracellular targets (Hussein et al. (2018) Comput. Struct. Biotechnol. J. 16:587-599; Hussein et al. (2017) Microbiol. Drug Resist. 23:640-650; Jasim et al. (2017) J. Biomed. Nanotechnol. 13:447-457; Schneider et al. (2016) ACS Infect. Dis. 2:478-488; Tran et al. (2018) Front. Pharmacol. 9:359; Tran et al. (2018) Front. Microbiol. 9:721; Schneider et al. (2017) Essays Biochem. 61:115-125; Diep et al. (2017) Antimicrob. Agents Chemother. 61; Rao et al. (2016) J. Antimicrob. Chemother. 71:3148-3156; Sharma et al. (2017) Int. J. Antimicrob. Agents 49:224-232).

[4] = tested on: Gram-positive bacteria; assay: Antibacterial activity against Gram-positive bacteria; format: cell-based
Source text: as §2

[5] = tested on: P. aeruginosa FADDI-PA021m; assay: MIC against polymyxin-resistant cystic fibrosis isolate FADDI-PA021m; format: cell-based
[6] = tested on: P. aeruginosa FADDI-PA021m; assay: Static time-kill study, FADDI-PA021m; format: cell-based; settings: native teixobactin or polymyxin B (MICs >128 mg/L)
[7] = tested on: A. baumannii; assay: MIC determination, A. baumannii strains; format: cell-based; settings: 4 PDR A. baumannii strains
Source text: (§3) Agents Chemother. 61; Rao et al. (2016) J. Antimicrob. Chemother. 71:3148-3156; Sharma et al. (2017) Int. J. Antimicrob. Agents 49:224-232). Subsequently, this SAR-based design strategy has been expanded to include teixobactins conjugated via labile and non-labile linkers to the polymyxin-lipopeptides (e.g., polymyxin B nonapeptide, FADDI-002 and octapeptin C4) (Velkov et al. (2018) Cell Chem. Biol. 25:380-391 e385; Velkov et al. (2013) Future Microbiol. 8:711-724; Velkov et al. (2014) ACS Chem. Biol. 9:1172-1177; Velkov et al. (2010) J. Med. Chem 53:1898-1916), which generated potent teixobactin lipopeptide hybrids active against teixobactin-resistant PDR Gram-negative ‘superbugs’ (Table 4).

[8] = tested on: pulmonary infections; settings: 230 critically-ill patients, cited from earlier work
[9] = tested on: S. aureus; assay: MIC determination, S. aureus strains; format: cell-based; settings: 3 PDR S. aureus strains
Source text: as §3

[10] = tested on: P. aeruginosa; assay: MIC determination, P. aeruginosa strains; format: cell-based; settings: 11 PDR P. aeruginosa strains
Source text: as §3

Row | Compound | MIC50 [1] [µg/mL] | MIC90 [1] [µg/mL] | MIC50 [2] [µg/mL] | MIC90 [2] [µg/mL] | other results
1 | ceftazidime-avibactam [CAZ-AVI] | 2 | 8 |  |  | 
2 | NCC[C@H](O)C(=O)N[C@@H]1C[C@H](N)[C@@H](O[C@H]2O[C@H](CN)[C@@H](O)[C@H](O)[C@H]2O)[C@H](O)[C@H]1O[C@H]1O[C@H](CO)[C@@H](O)[C@H](N)[C@H]1O [AMK, amikacin] |  |  | 16 | > 32 | 
3 | piperacillin-tazobactam [PIP-TAZ] | 64 | >128 |  |  | 
4 | gentamicin [GNT] | 8 | >16 |  |  | 
5 | CCCCCCC[C@@H](O)CC(=O)N[C@H](CCN)C(=O)NC1CCNC(=O)[C@H](CC(C)C)NC(=O)[C@H](CCN)NC(=O)[C@H](CCN)NC(=O)[C@H](CC(C)C)NC(=O)[C@@H](Cc2ccccc2)NC(=O)[C@H](CCN)NC1=O (stereo partly drawn) [octapeptin C4] ({Decanoyl(3R-OH)}-[dDab][ξDab][Dab][dF]L[Dab][Dab]L; lactam 2-C) |  |  |  |  | activity against Gram-negative bacteria [3]: potent activity; activity against Gram-positive bacteria [4]: potent activity
6 | CCCCCCCCCC(=O)N[C@H](CCN)C(=O)N[C@H]1CCNC(=O)[C@H](CC(C)C)NC(=O)[C@H](CCN)NC(=O)[C@H](CCN)NC(=O)[C@H](CC(C)C)NC(=O)[C@@H](Cc2ccccc2)NC(=O)[C@H](CCN)NC1=O [FADDI-115] (Decanoyl-[dDab][Dab][Dab][dF]L[Dab][Dab]L; lactam 2-C) |  |  |  |  | activity against Gram-negative bacteria [3]: potent activity; activity against Gram-positive bacteria [4]: potent activity
7 | polymyxin B |  |  |  |  | MIC [5]: > 128 µg/mL; killing [6]: no killing was observed
8 | colistin | 1 | 1 |  |  | colistin MIC (PDR strains) [7]: 8 to 128 µg/mL; efficacy of parenteral colistin for pulmonary infections [8]: disappointing; exposure of colistin at the infection site ([8]; parenteral, pulmonary infections): very limited exposure at the infection site; colistin MIC (PDR strains) [9]: >128 µg/mL; colistin MIC (PDR strains) [10]: 8 to 128 µg/mL
9 | C[C@H]1COc2c(N3CCN(C)CC3)c(F)cc3c(=O)c(C(=O)O)cn1c23 [LEVO, levofloxacin] |  |  | 8 | > 16 | 
10 | C[C@@H](O)[C@H]1C(=O)N2C(C(=O)O)=C(S[C@@H]3CN[C@H](C(=O)N(C)C)C3)[C@H](C)[C@H]12 [MER, meropenem] |  |  | 16 | > 32 | 
